Laboratory results as given in US20230414556A1, “NANO-HEPATIC TARGETED EPIGALLOCATECHIN GALLATE IN DYSLIPIDEMIA” (priority 2022, published 2023).
Like-named read-outs stand apart in the source and are kept apart here.

What was measured:
[1] = cited from earlier work
[2] = biological target: T1, Hydroxy-3-methyl-glutaryl-CoA reductase (HMGR) (Homo sapiens, UniProt P04035); conditions: competitive binding to the cofactor site; cited from earlier work
T1 sequence (P04035 426-888 limits assumed): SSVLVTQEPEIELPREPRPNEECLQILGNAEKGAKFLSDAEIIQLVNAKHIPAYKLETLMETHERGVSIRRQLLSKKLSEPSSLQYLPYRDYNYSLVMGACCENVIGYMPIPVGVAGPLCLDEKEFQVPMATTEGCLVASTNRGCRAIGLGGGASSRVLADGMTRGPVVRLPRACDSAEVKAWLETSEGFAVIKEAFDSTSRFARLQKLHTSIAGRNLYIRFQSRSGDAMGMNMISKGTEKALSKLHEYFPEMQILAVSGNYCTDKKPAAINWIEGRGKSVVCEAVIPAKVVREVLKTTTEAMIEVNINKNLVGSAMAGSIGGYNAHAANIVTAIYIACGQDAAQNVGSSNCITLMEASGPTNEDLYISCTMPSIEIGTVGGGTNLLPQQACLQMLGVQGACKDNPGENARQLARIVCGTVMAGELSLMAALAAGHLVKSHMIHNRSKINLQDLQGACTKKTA

[3] = Plasma lipid profile in high-fat diet mice (nutritionally induced hypercholesterolemia model); type: in vivo, C57BL/6 mice; conditions: oral
Method: High fat diet male C57BL/6 mice aged 4-5 weeks and weighing 20-25 g were purchased from Taconic Biosciences, Inc. (Germantown, NY, USA). All animal studies were conducted at the animal facility of the Veteran Affairs Medical Center (VAMC) (Albany, NY, USA) in accordance with institutional guidelines for humane animal treatment and approved by the Institutional Animal Care & Use Committee (IACUC) at VAMC. Animals were maintained under specific pathogen-free conditions and housed under controlled conditions of temperature (20-24° C.) and humidity (60-70%) and 12 h light/dark cycle with ad libitum access to water and food. The mice were grouped into five arms (n=5). Administrated orally to the mice were water for vehicle control (VCtrl), Void nanoparticle (void NP), EGCG (30 mg/kg), Nano EGCG (NP-EGCG) and Nano-targeted EGCG (NPT-EGCG) at 30 mg/kg equivalent EGCG for 3 weeks. Blood was collected from retro-orbital after the 24 h, week 1, week 2 and week 3 treatment to measure the levels of plasma total cholesterol, LDL-C, HDL, free and cholesteryl esters. Animals were humanely sacrificed, and liver tissue was collected. The plasma contents of total cholesterol, LDL-C, HDL-C, free and cholesteryl esters were measured with the Cholesterol-HDL and LDL/VLDL assay kit according to the manufacturer's instructions (Abcam, Boston, MA, USA). Statistical analysis was performed using GraphPad Prism (San Diego, CA, USA) (Wilkinson, 1956). All data are presented as mean±standard deviation of the mean. The Mann-Whitney nonparametric test was used to determine differences in the groups. ***P<0.001, **P<0.01, *P<0.05 were considered as significant.

[4] = 30 mg/kg, week 3, compared to vehicle control and void NP

(−)-epigallocatechin gallate [EGCG]
stability of EGCG ([1]; acidic solutions (pH<4)): very stable | stability of EGCG ([1]; neutral and alkaline solutions): extremely unstable and degraded almost completely in a few minutes | inhibition of in vitro activity of HMGR [2]: potently inhibits | decrease of plasma total cholesterol ([3]; 30 mg/kg (equivalent) EGCG, week 3, compared to vehicle control and void NP): 28% | plasma cholesteryl esters (in words) ([3]; 30 mg/kg, week 2 and week 3): significant decrease | decrease in plasma LDL-C ([3]; 30 mg/kg, week 3): 3% | increase in plasma HDL-C ([3]; 30 mg/kg, week 3): 10% | levels of free cholesterol in plasma (in words) [3, 4]: significant decrease | reduction of plasma cholesteryl esters [3, 4]: 30% | reduction of plasma free cholesterol [3, 4]: 11%
